Test [1] has as its target Recombinant human inducible NOS (iNOS) (Homo sapiens (Human), UniProt P35228). The test can be described thus: Human iNOS enzyme assay (Protocol 1 or Protocol 2, radiometric). The format is biochemical. On the procedure: The human iNOS assay was carried by either one of the two protocols as described herein:
Recombinant human inducible NOS (iNOS) was produced in Baculovirus-infected Sf9 cells (ALEXIS). In a radiometric method, NO synthase activity was determined by measuring the conversion of [^3H]L-arginine to [^3H]L-citrulline. To measure iNOS, 10 μL of enzyme was added to 100 μL of 100 mM HEPES, pH=7.4, containing 1 mM CaCl2, 1 mM EDTA, 1 mM dithiothreitol, 1 μM FMN, 1 μM FAD, 10 μM tetrahydrobiopterin, 120 μM NADPH, and 100 nM CaM.
To measure enzyme inhibition, a 15 μL solution of a test substance was added to the enzyme assay solution, followed by a pre-incubation time of 15 min at RT. The reaction was initiated by addition of 20 μL L-arginine containing 0.25 μCi of [^3H] arginine/mL and 24 μM L-arginine. The total volume of the reaction mixture was 150 μL in every well. The reactions were carried out at 37° C. for 45 minutes, The reaction was stopped by adding 20 μL of ice-cold buffer containing 100 mM HEPES, 3 mM EGTA, 3 mM EDTA, pH=5.5. [^3H]L-citrulline was separated by DOWEX (ion-exchange resin DOWEX 50 W×8-400, SIGMA) and the DOWEX was removed by spinning at 12,000 g for 10 min in the centrifuge. An aliquot (70 μL) of the supernatant was added to 100 μL of scintillation fluid, and the samples were counted in a liquid scintillation counter (1450 Microbeta Jet, Wallac). Specific NOS activity was reported as the difference between the activity recovered from the test solution and that observed in a control sample containing 240 mM of the inhibitor L-NMMA. All assays were performed at least in duplicate. Standard deviations are 10% or less.
Primary stock solutions of each test compound were prepared in distilled water on the day of study to obtain a final concentration of 6 mM. For the determination of IC50 values, 11 test compound concentrations were prepared as 3-fold serial dilutions. Test compounds were tested in the iNOS assay at a concentration of 1000 μM to 0.0169 μM. The vehicle of the test compound or inhibitor, distilled water, was used as blank control. For non-specific activity, 100 μM L-NMMA was run in parallel as a control.
All incubations were performed in duplicate
The reaction mixture was prepared on ice by the addition of the following components to the appropriate well of a 1.0 mL 96-well polypropylene plate:
10 μL of test compound, reference inhibitor, or control (vehicle or L-NMMA) solution;
25 μL of Reaction Buffer (50 mM Tris-HCl, 6 μM BH4, 2 μM FMN, 2 μM FAD);
5 μL of 10 mM NADPH solution;
5 μL of 1 μM Calmodulin; and
The reaction mixture was pre-incubated at room temperature for 15 minutes. Following this pre-incubation, the reaction was initiated by the addition of 5 μL of the substrate L-arginine (1 μCi of [^3H]-L-Arginine+30 μM of unlabeled L-Arginine) to the reaction mixture. The total reaction volume was 60 μL. The assay plate containing the reaction mixtures was sealed and incubated at 37° C. for 30 minutes. At the end of this incubation period, 400 μL of ice-cold Stop Buffer (the EDTA in the Stop Buffer chelates all of the available calcium) was added to each well to stop the reaction. 100 μL of equilibrated resin pH 5.5 was added to each of the assay wells. The reaction samples were vortexed and transferred to spin cups, after-which they were centrifuged at 13,000 rpm for 30 sec. The spin cups were removed from the holder and […] (containing the unbound L-citrulline) were added to the appropriate wells of a 96-well liquid scintillation plate. 175 μL of scintillation fluid were also added to each well. The plate was sealed, and radioactivity was quantitated using a Microbeta liquid scintillation counter.
Data were analyzed using a Sigmoidal dose-response (variable slope) curve to determine the IC50 value of the test compound. Y=Bottom+(Top−Bottom)/(1+10^((Log IC50−X)*Hill Slope))

Test [2] deals with Carrageenan model of inflammatory pain. In words: Carrageenan model of inflammatory pain. In kind it is in vivo, rat. The note with it: rats. On the procedure: Inflammation was induced by injecting 0.1 mL of a 3% carrageenan suspension s.c. into the supplanter aspect of a hindpaw of lightly anesthetized rats. Typically, pronounced inflammation and edema were obvious within three hours of the injection. The carrageenan model is a model of inflammatory pain with two components: the first occurring immediately after injection provides information on the acute nociceptive response to a painful stimulus (in this case, the chemical carrageenan). There is also a second, neurogenic component that develops several hours later and reflects the type of neuronal activity due to the hyperalgesic and allodynic components as found in neuropathic pain. Considerable evidence has shown that NO and its enzymes are involved in the central mechanisms of inflammatory hyperalgesia at the spinal cord level and that peripheral inflammation can upregulate nNOS expression and induce iNOS expression in the spinal cord (Guhring et al., J. Neurosci. 20:6714-6720, 2000; Wu et al., Exp. Brain Res. 118:457-465, 1998; and Wu et al., Pain 94:47-58, 2001).

Experimental findings from patent publication US8618286B2, “Benzoxazines, benzothiazines, and related compounds having NOS inhibitory activity” (NeurAxon, Inc., priority 2008, dated 2013) are described below.

For the compound `CNCCN1CCSc2cc(NC(=N)c3cccs3)ccc21` [Compound 8, N-(4-(2-(methylamino)ethyl)-3,4-dihydro-2H-benzo[b][1,4]thiazin-7-yl)thiophene-2-carboximidamide], in test [1], the IC50 (in general, the concentration that gives 50% inhibition) came out at 70.6 µM. In addition, the “reversal of mechanical allodynia” value in test [2] (ipsilateral paw, 60, 100, or 200 mg/kg p.o. (FIG. 6)) is listed as “reversal of mechanical allodynia”. Also, the “reversal of thermal hyperalgesia (late phase), paw withdrawal latency” value in test [2] (ipsilateral paw, text: i.p. dosing, FIG. 7 legend: 60, 100, or 200 mg/kg p.o.) is “reversal of thermal hyperalgesia”.
